# In patent US20060154891A1, “Ready-to-use gemcitabine solutions and gemcitabin concentrates” (priority 2004, published 2006):
# Where a name gives a salt, the structure may show the parent alone. Read-outs that look alike come from different tables or passages of the source.
# What was measured:
# [1] = pH range from 3 to 10 investigated; EP 1 479 389 A1; cited from earlier work
# [2] = Concentration at which gemcitabine hydrochloride forms a clear solution at room temperature; assay type: physicochemical
# Procedure: At room temperature, gemcitabine hydrochloride forms a clear solution at a concentration of about 40 mg/milliliter in a strong, aqueous hydrochloric acid solution (pH approximately 3, reconstituted Gemzar® lyophilisate, Eli Lilly) or at a concentration of about 15 mg/mL in an aqueous, weakly alkaline solution having a pH of about 8, and at a concentration of up to 110 mg/mL in an alkaline, ethanolic, aqueous solution with a pH of approximately 10.
# [3] = room temperature; strong, aqueous hydrochloric acid solution, pH approximately 3, reconstituted Gemzar lyophilisate; cited from earlier work
"Concentration forming a clear solution ([2]; alkaline, ethanolic, aqueous solution, pH of approximately 10)","Concentration forming a clear solution ([2]; aqueous, weakly alkaline solution, pH of about 8)",SMILES,pH described as optimum for stability in aqueous solution [1],Concentration forming a clear solution [3]
–,–,"Nc1ccn([C@@H]2O[C@H](CO)[C@@H](O)C2(F)F)c(=O)n1 [gemcitabine, 2′-deoxy-2′,2′-difluorocytidine]",about 8,–
up to 110 mg/mL,about 15 mg/mL,Nc1ccn([C@@H]2O[C@H](CO)[C@@H](O)C2(F)F)c(=O)n1 [gemcitabine hydrochloride],–,about 40 mg/milliliter
